Measured values taken from patent US7384788B2, “Regulator/promoter for tunable gene expression and metabolite sensing” (priority 2003, dated 2008).

Assays:
[1] = tested on: luxCDABE gene fusions; conditions: cited from earlier work
[2] = tested on: yhcP; test: DNA microarray gene expression profiling of pHBA-treated E. coli; assay type: cell-based; conditions: 25 mM pHBA, 60 minutes
Experimental: (§1) The alterations in the E. coli gene expression profile upon exposure to pHBA were examined using DNA microarray technology. E. coli strain DE112 (Van Dyk et al. Appl. Environ. Microbiol. 60:1414-1420 (1994)) was grown in Vogel-Bonner minimal medium with glucose as a carbon source to an OD600 of 0.2. At this point the culture was split in two flasks and pHBA in the acid form was added to one flask from a stock solution in ethanol to achieve a final pHBA concentration of 25 mM. The pH of the medium in the flask with pHBA was lowered by an unmeasured amount. An equivalent volume of ethanol without pHBA was added to the other flask. Approximately 58% growth inhibition resulted from the pHBA treatment under these conditions. Cells were harvested from the control and treated flasks at 30 and 60 minutes after pHBA addition. RNA isolation, array hybridization, and data analysis were done as previously described (Wei et al, J. Bacteriol. 183:545-556 (2001), Smulski et al. J. Bacteriol. 183:3353-3364 (2001)). […] These three genes are predicted to be transcribed as an operon. The reproducible observed co-regulation in response to pHBA treatment is consistent with this prediction. Thus, these three genes will be referred to as the yhcRQP operon.

[3] = tested on: yhcR; test: as above; assay type: cell-based; conditions: 25 mM pHBA, 60 minutes
Experimental: as §1

[4] = tested on: yhcQ; test: as above; assay type: cell-based; conditions: 25 mM pHBA, 60 minutes
Experimental: as §1

[5] = tested on: yhcRQP-luxCDABE gene fusion; test: Bioluminescence response in yhcS+ strain DPD2436 (MG1655 host); assay type: cell-based, E. coli; conditions: thirty minutes, LB pH 7.0
From the text: A derivative of E. coli strain MG1655 (obtained from Prof. Douglas Berg, Washington University School of Medicine, St. Louis, […].) with the yhcS::TN<Kan> mutation was made by P1clr100Cm mediated transduction using phage grown on strain DPD2410 as a donor and selection for kanamycin resistance. […] Plasmid pDEW655 was moved to E. coli strains MG1655 and DPD2433 by transformation, selecting for Ampicillin resistance to generate strains DPD2436 and DPD2437, respectively. The bioluminescent response of these two strains to pHBA was tested. Aliquots (50 μl) of actively growing cultures at 37° C. in LB medium that had been previously diluted, and from overnight cultures in LB medium with 150 μg/ml Ampicillin were added to 50 μl of LB medium at pH 7.0 containing pHBA as the sodium salt form. Several concentrations of pHBA were tested.
Further characterization of the signals that trigger activation of YhcS, was done using the yhcRQP-luxCDABE gene fusion containing E. coli strains DPD2411 or DPD2436.

[6] = tested on: yhcRQP-luxCDABE gene fusion; test: Bioluminescence kinetics in yhcS+ strain DPD2413 (DH5alphaE host), FIG. 1; assay type: cell-based, E. coli; conditions: 5 mM pHBA acid form, yhcS+ strain DPD2413, LB medium
Experimental: (§2) E. coli strain DPD2410 is the DH5αE derived strain containing the yhcS::TN<Kan> mutation. Strains DH5αE and DPD2410 were transformed with pDEW655 to generate E. coli strains DPD2413 and DPD2415, respectively. […] The plate was incubated for 90 minutes at 37° C.; then 50 μl of the cultures was added to 50 μl of LB medium or to 50 μl of LB medium containing pHBA in the acid form, which had been added from a stock solution in ethanol. The final concentration of pHBA was 5 mM and the final concentration of ethanol was 0.25%. The pH of the medium with pHBA was lowered by an unmeasured amount. The bioluminescence was quantitated with a Luminoskan Ascent microplate luminometer (Thermo Labsystems, Franklin, Mass.). The results of this study are presented in FIG. 1, which is a plot of the bioluminescence intensity in relative light units (RLU) versus time in minutes. In the Figure, addition of pHBA was made at time zero. Solid lines are the response in the yhcS^+ strain, DPD2413. Dotted lines are the response in the yhcS^− strain, DPD2415. Circles represent pHBA treated cultures and triangles represent untreated cultures.

[7] = tested on: yhcRQP-luxCDABE gene fusion; test: Bioluminescence response in yhcS- strain DPD2437 (yhcS::TN<Kan>); assay type: cell-based, E. coli; conditions: thirty minutes, LB pH 7.0
From the text: A derivative of E. coli strain MG1655 (obtained from Prof. Douglas Berg, Washington University School of Medicine, St. Louis, […].) with the yhcS::TN<Kan> mutation was made by P1clr100Cm mediated transduction using phage grown on strain DPD2410 as a donor and selection for kanamycin resistance. The presence of the yhcS::TN<Kan> mutation in one of the resultant transductants, named DPD2433, was confirmed by PCR amplification. Plasmid pDEW655 was moved to E. coli strains MG1655 and DPD2433 by transformation, selecting for Ampicillin resistance to generate strains DPD2436 and DPD2437, respectively. The bioluminescent response of these two strains to pHBA was tested. Aliquots (50 μl) of actively growing cultures at 37° C. in LB medium that had been previously diluted, and from overnight cultures in LB medium with 150 μg/ml Ampicillin were added to 50 μl of LB medium at pH 7.0 containing pHBA as the sodium salt form. Several concentrations of pHBA were tested.

[8] = tested on: E. coli strain DE112; test: Growth inhibition by pHBA treatment; assay type: cell-based; conditions: Escherichia coli, 25 mM pHBA (acid form), Vogel-Bonner minimal medium with glucose
Experimental: as §1

[9] = tested on: yhcRQP-luxCDABE gene fusion; test: Bioluminescence kinetics in yhcS- strain DPD2415 (yhcS::TN<Kan>), FIG. 1; assay type: cell-based, E. coli; conditions: 5 mM pHBA acid form, yhcS::TN<Kan> strain DPD2415, LB medium
Experimental: as §2

SMILES: CCn1cc(C(=O)O)c(=O)c2ccc(C)nc21 [nalidixic acid]
- up-regulation of genes in luxCDABE gene fusion collection [1]: selective up-regulation of ten genes

SMILES: O=C(O)c1ccc(O)cc1 [pHBA, para-hydroxybenzoic acid]
- Ratio (treated/untreated) ([2]; experiment 1): 6.45
- Signal in pHBA treated ([2]; experiment 1): 7.52
- Ratio (treated/untreated) ([2]; experiment 2): 12.1
- Signal in pHBA treated ([2]; experiment 2): 12.0
- Ratio (treated/untreated) ([3]; experiment 1): 72.3
- Signal in pHBA treated ([3]; experiment 1): 1.37
- Ratio (treated/untreated) ([3]; experiment 2): 10.5
- Signal in pHBA treated ([3]; experiment 2): 7.18
- Ratio (treated/untreated) ([4]; experiment 1): 4.09
- Signal in pHBA treated ([4]; experiment 1): 1.61
- Ratio (treated/untreated) ([4]; experiment 2): 22.3
- Signal in pHBA treated ([4]; experiment 2): 6.02
- RLU yhcS+ ([5]; 1.6 mM pHBA sodium salt): 6.72 RLU
- Ratio treated/control yhcS+ ([5]; 1.6 mM pHBA sodium salt): 10.6
- RLU yhcS+ ([5]; 3.1 mM pHBA sodium salt): 10.2 RLU
- Ratio treated/control yhcS+ ([5]; 3.1 mM pHBA sodium salt): 16.2
- RLU yhcS+ ([5]; 6.2 mM pHBA sodium salt): 16.2 RLU
- Ratio treated/control yhcS+ ([5]; 6.2 mM pHBA sodium salt): 25.7
- RLU yhcS+ ([5]; 12.5 mM pHBA sodium salt): 30.8 RLU
- Ratio treated/control yhcS+ ([5]; 12.5 mM pHBA sodium salt): 48.8
- RLU yhcS+ ([5]; 25 mM pHBA sodium salt): 66.6 RLU
- Ratio treated/control yhcS+ ([5]; 25 mM pHBA sodium salt): 106
- RLU yhcS+ ([5]; 50 mM pHBA sodium salt): 91.7 RLU
- Ratio treated/control yhcS+ ([5]; 50 mM pHBA sodium salt): 145
- RLU yhcS+ ([5]; 100 mM pHBA sodium salt): 0.437 RLU
- Ratio treated/control yhcS+ ([5]; 100 mM pHBA sodium salt): 0.693
- upregulation of yhcRQP-luxCDABE expression (in words, FIG. 1) [6]: rapid and dramatic upregulation
- RLU yhcS- ([7]; 1.6 mM pHBA sodium salt): 1.02 RLU
- Ratio treated/control yhcS- ([7]; 1.6 mM pHBA sodium salt): 1.25
- RLU yhcS- ([7]; 3.1 mM pHBA sodium salt): 1.16 RLU
- Ratio treated/control yhcS- ([7]; 3.1 mM pHBA sodium salt): 1.42
- RLU yhcS- ([7]; 6.2 mM pHBA sodium salt): 1.42 RLU
- Ratio treated/control yhcS- ([7]; 6.2 mM pHBA sodium salt): 1.75
- RLU yhcS- ([7]; 12.5 mM pHBA sodium salt): 1.82 RLU
- Ratio treated/control yhcS- ([7]; 12.5 mM pHBA sodium salt): 2.23
- RLU yhcS- ([7]; 25 mM pHBA sodium salt): 1.59 RLU
- Ratio treated/control yhcS- ([7]; 25 mM pHBA sodium salt): 1.95
- RLU yhcS- ([7]; 50 mM pHBA sodium salt): 0.614 RLU
- Ratio treated/control yhcS- ([7]; 50 mM pHBA sodium salt): 0.753
- RLU yhcS- ([7]; 100 mM pHBA sodium salt): 0.045 RLU
- Ratio treated/control yhcS- ([7]; 100 mM pHBA sodium salt): 0.055
- inhibition at 25000 µM [8]: ~58%
- upregulation of yhcRQP-luxCDABE expression (in words, FIG. 1) [9]: essentially abolished
